Reference: US10888567B2, “Inhibitors of tryptophan dioxygenases (IDO1 and TDO) and their use in therapy” (AUCKLAND UNISERVICES LIMITED, priority 2014, dated 2021)

What was measured:
[1] = biological target: Recombinant human IDO1 (rhIDO1) (Homo sapiens (Human), UniProt P14902); test: Enzymatic assay for IDO1 activity; type: biochemical; settings: rhIDO1 9 nM, 80 μM TRP, 37° C. 30 min
Procedure: Recombinant human IDO1 (rhIDO1) was expressed and purified from cultures of EC538 strain of E. coli transformed with pREP4 and pQE9-IDO plasmid. Reaction mixes were set up in 384-well microplates containing 50 mM phosphate buffer, 10 mM ascorbic, 10 μM methylene blue, 100 μg/mL catalase, 80 μM TRP, 0.01% Tween 20 (v/v) mixed with rhIDO1 (15 μL) at a final concentration of 9 nM in a total volume of 30 μL assay medium. The plates were incubated at 37° C. for 30 min, and the enzymatic reaction was terminated by adding piperidine (200 mM) and heated at 65° C. for 20 min. Fluorescence intensity was read at λex 400 nm and λem 500 nm. Test compounds were dissolved in 100% DMSO and pre-diluted in assay medium prior to adding rhIDO1. IDO1 inhibition (%) was calculated as
[formula] All experiments were carried out in triplicates, and statistical Analyses were conducted in Prism v5 (Graphpad Software, Inc., La Jolla, Calif., USA). Cell-Based Assay for IDO1 Inhibition

[2] = biological target: human IDO1 (LLTC-hIDO1 cells) (Homo sapiens, UniProt P14902); test: Cell-based assay for IDO1 inhibition (kynurenine in supernatant); settings: IDO1-transfected Lewis Lung carcinoma cells, 24 h; read-out: Cellular IC50
Procedure: Culture supernatant from each well was then transferred into a fresh, flat-bottomed 96-well plate, mixed with trichloroacetic acid (10% final concentration) and incubated for 20 min at 60° C. […] The absorbance of each well was read at 480 nm, and the concentration that inhibited 50% cellular enzyme activity was calculated.

[3] = system: Lewis Lung carcinoma cells transfected to express IDO1 (LLTC-hIDO1); test: MTT cell viability in the cellular IDO1 assay; type: cell-based; settings: same experiment as cellular IDO1 assay
Procedure: The viability of the cells in each well in the same experiment was determined using the 3-(4,5-dimethylthiazolyl-2-yl)-2,5-diphenyltetrazolium bromide (MTT) colourimetric assay. After the removal of the supernatant for determination of IDO1 inhibition, the cells were incubated with MTT (500 μg/mL) until crystal formation was observed. […] DMSO (100 μL/well) was added to dissolve the crystals and then the absorbance in each well was measured at 570 nm. Cell viability in each well was expressed as a percentage of untreated controls. Triplicate cultures were used for all experiments unless stated otherwise.

[4] = biological target: human TDO (GL261 cells transfected to over-express full length human TDO) (Homo sapiens (Human), UniProt P48775); test: Cell-based assay for TDO inhibition; settings: GL261 cells over-expressing human TDO, 24 h; read-out: Cellular IC50
Procedure: Culture supernatant from each well was then transferred into a fresh, flat-bottomed 96-well plate, and kynurenine content was determined as described above for the IDO1 assay, and the concentration that inhibited 50% cellular enzyme activity was calculated.

[5] = system: GL261 cells transfected to over-express human TDO; test: MTT cell viability in the cellular TDO assay; type: cell-based; settings: same experiment as cellular TDO assay
Procedure: The viability of the cells in each well in the same experiment was determined using the 3-(4,5-dimethylthiazolyl-2-yl)-2,5-diphenyltetrazolium bromide (MTT) colourimetric assay.

Sequence of human TDO (GL261 cells transfected to over-express full length human TDO) (P48775 whole entry): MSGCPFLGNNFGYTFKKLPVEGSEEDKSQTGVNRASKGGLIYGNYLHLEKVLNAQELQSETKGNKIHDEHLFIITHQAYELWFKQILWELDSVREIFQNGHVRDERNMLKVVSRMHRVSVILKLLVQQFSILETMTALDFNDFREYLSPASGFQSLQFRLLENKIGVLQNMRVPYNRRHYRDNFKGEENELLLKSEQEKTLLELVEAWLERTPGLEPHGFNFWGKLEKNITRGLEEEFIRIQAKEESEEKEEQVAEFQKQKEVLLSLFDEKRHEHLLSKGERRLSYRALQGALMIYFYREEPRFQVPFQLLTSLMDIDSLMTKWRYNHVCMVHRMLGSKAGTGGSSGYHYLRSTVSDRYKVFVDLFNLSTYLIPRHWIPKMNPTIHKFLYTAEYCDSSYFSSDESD
Sequence of Recombinant human IDO1 (rhIDO1) (P14902 whole entry): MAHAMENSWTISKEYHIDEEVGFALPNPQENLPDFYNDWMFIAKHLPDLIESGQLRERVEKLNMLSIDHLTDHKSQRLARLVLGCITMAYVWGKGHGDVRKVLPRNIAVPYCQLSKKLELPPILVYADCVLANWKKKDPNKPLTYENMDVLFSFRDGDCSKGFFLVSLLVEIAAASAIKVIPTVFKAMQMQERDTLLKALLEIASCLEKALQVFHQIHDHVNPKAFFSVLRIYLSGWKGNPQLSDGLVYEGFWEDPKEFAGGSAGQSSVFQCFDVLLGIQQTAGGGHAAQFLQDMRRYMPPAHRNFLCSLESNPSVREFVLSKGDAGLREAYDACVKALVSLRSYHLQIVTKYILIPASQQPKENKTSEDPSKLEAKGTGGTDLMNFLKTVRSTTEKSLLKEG

| Structure (SMILES) | IC50 [1] | IC50 [2] | IC50 [3] | IC50 [4] | IC50 [5] |
| --- | --- | --- | --- | --- | --- |
| Nc1noc2nc(Oc3ccc(OC(F)(F)F)cc3)ccc12 [Compound 89, 6-(4-(Trifluoromethoxy)phenoxy)isoxazolo[5,4-b]pyridin-3-amine] | > 100 µM | 10 to 100 µM | > 100 µM | 10 to 100 µM | > 100 µM |
| Nc1noc2nc(Cl)c(F)cc12 [Compound 66, 6-Chloro-5-fluoroisoxazolo[5,4-b]pyridin-3-amine] | < 1 µM | < 1 µM | > 100 µM | < 1 µM | > 100 µM |
| Nc1noc2nc(Cl)ccc12 [Compound 11, 6-Chloroisoxazolo[5,4-b]pyridin-3-amine] | 1 to 10 µM | < 1 µM | > 100 µM | < 1 µM | > 100 µM |
| Nc1noc2nc(NC3CC3)c(F)cc12 [Compound 56, N6-Cyclopropyl-5-fluoroisoxazolo[5,4-b]pyridine-3,6-diamine] | > 100 µM | > 100 µM | > 100 µM |  |  |
| Nc1noc2ncccc12 [Compound 2, Isoxazolo[5,4-b]pyridin-3-amine] | > 100 µM | 10 to 100 µM | > 100 µM |  |  |
| Cc1ncc2c(N)noc2n1 [Compound 64, 6-Methylisoxazolo[5,4-d]pyrimidin-3-amine] | > 100 µM | 10 to 100 µM | > 100 µM |  |  |
| Nc1noc2ncc([N+](=O)[O-])cc12 [Compound 49, 5-Nitroisoxazolo[5,4-b]pyridin-3-amine] | 1 to 10 µM | < 1 µM | > 100 µM |  |  |
| CCOC(=O)c1cc2c(N)noc2nc1C(F)(F)F [Compound 50, Ethyl 3-amino-6-(trifluoromethyl)isoxazolo[5,4-b]pyridine-5-carboxylate] | 10 to 100 µM | 10 to 100 µM | > 100 µM |  |  |
| Nc1noc2ncc(Cl)cc12 [Compound 8, 5-Chloroisoxazolo[5,4-b]pyridin-3-amine] | 10 to 100 µM | < 1 µM | > 100 µM |  |  |
| Nc1noc2nc(Oc3ccccc3Cl)ccc12 [Compound 84, 6-(2-Chlorophenoxy)isoxazolo[5,4-b]pyridin-3-amine] | 10 to 100 µM | 10 to 100 µM | > 100 µM |  |  |
| Nc1noc2nc3c(cc12)CCCC3 [Compound 10, 5,6,7,8-Tetrahydroisoxazolo[5,4-b]quinolin-3-amine] | > 100 µM | 1 to 10 µM | > 100 µM |  |  |
| COC(=O)c1ccc2c(N)noc2n1 [Compound 82, Methyl 3-aminoisoxazolo[5,4-b]pyridine-6-carboxylate] | > 100 µM | 10 to 100 µM | > 100 µM |  |  |
| Nc1noc2nc(-c3ccccc3)ccc12 [Compound 15, 6-Phenylisoxazolo[5,4-b]pyridin-3-amine] | > 100 µM | 1 to 10 µM | > 100 µM |  |  |
| CSc1ncc2c(N)noc2n1 [Compound 63, 6-(Methylthio)isoxazolo[5,4-d]pyrimidin-3-amine] | > 100 µM | 10 to 100 µM | > 100 µM |  |  |
| Nc1noc2nc(-c3ccco3)ccc12 [Compound 58, 6-(Furan-2-yl)isoxazolo[5,4-b]pyridin-3-amine] | > 100 µM | 1 to 10 µM | > 100 µM |  |  |
| CS(=O)(=O)c1ccc2c(N)noc2n1 [Compound 80, 6-(methylsulfonyl)isoxazolo[5,4-b]pyridin-3-amine] | > 100 µM | 10 to 100 µM | > 100 µM |  |  |
| Cc1cc(C(F)(F)F)c2c(N)noc2n1 [Compound 46, 6-Methyl-4-(trifluoromethyl)isoxazolo[5,4-b]pyridin-3-amine] | > 100 µM | 10 to 100 µM | > 100 µM |  |  |
| Nc1noc2nc(Cl)cc(C(F)(F)F)c12 [Compound 68, 6-Chloro-4-(trifluoromethyl)isoxazolo[5,4-b]pyridin-3-amine] | > 100 µM | 10 to 100 µM | > 100 µM |  |  |
| Nc1noc2nc3ccccc3cc12 [Compound 9, Isoxazolo[5,4-b]quinolin-3-amine] | 10 to 100 µM | 1 to 10 µM | > 100 µM |  |  |
| Cc1nc2onc(N)c2c(C)c1Cl [Compound 3, 5-Chloro-4,6-dimethylisoxazolo[5,4-b]pyridin-3-amine] | 1 to 10 µM | < 1 µM | > 100 µM | 1 to 10 µM | > 100 µM |
| CCOC(=O)c1cc2c(N)noc2nc1C(F)F [Compound 54, Ethyl 3-amino-6-(difluoromethyl)isoxazolo[5,4-b]pyridine-5-carboxylate] | > 100 µM | 10 to 100 µM | > 100 µM |  |  |
| CN(C)CCOc1ccc2c(N)noc2n1 [Compound 77, 6-(2-(Dimethylamino)ethoxy)isoxazolo[5,4-b]pyridin-3-amine] | > 100 µM | > 100 µM | > 100 µM |  |  |
| Cc1cnc2onc(N)c2c1 [Compound 44, 5-Methylisoxazolo[5,4-b]pyridin-3-amine] | > 100 µM | 10 to 100 µM | > 100 µM |  |  |
| Cc1nc2onc(N)c2c(C)c1Br [Compound 1, 5-Bromo-4,6-dimethylisoxazolo[5,4-b]pyridin-3-amine] | 1 to 10 µM | < 1 µM | > 100 µM |  |  |
| Nc1noc2nc(C(=O)O)ccc12 [Compound 81, 3-Aminoisoxazolo[5,4-b]pyridine-6-carboxylic acid] | > 100 µM | > 100 µM | > 100 µM |  |  |
| COc1ccc(-c2ccc3c(N)noc3n2)cc1 [Compound 70, 6-(4-Methoxyphenyl)isoxazolo[5,4-b]pyridin-3-amine] | > 100 µM | > 100 µM | > 100 µM |  |  |
| Nc1noc2nc(Oc3ccccc3OC(F)(F)F)ccc12 [Compound 87, 6-(2-(Trifluoromethoxy)phenoxy)isoxazolo[5,4-b]pyridin-3-amine] | > 100 µM | 10 to 100 µM | > 100 µM |  |  |
| Nc1noc2nc(-c3ccc(F)cc3F)ccc12 [Compound 73, 6-(2,4-Difluorophenyl)isoxazolo[5,4-b]pyridin-3-amine] | > 100 µM | 10 to 100 µM | > 100 µM |  |  |
| Nc1noc2nc3c(cc12)CCC3 [Compound 59, 6,7-Dihydro-5H-cyclopenta[b]isoxazolo[4,5-e]pyridin-3-amine] | > 100 µM | > 100 µM | > 100 µM |  |  |
| COCC#Cc1cnc2onc(N)c2c1 [Compound 69, 5-(3-Methoxyprop-1-yn-1-yl)isoxazolo[5,4-b]pyridin-3-amine] | > 100 µM | 10 to 100 µM | > 100 µM |  |  |
